The structures appear in SMILES notation.

The series is described as follows: gradient 5% acetonitrile 3 min, to 50% in 2 min, to 85% in 15 min, held 3 min, 100 µL/min. Particulars: column: Zorbax Extend-C18 2.1 x 50 mm; eluents: water / acetonitrile, 0.1% formic acid. Summed up:
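Retention times of pure standards were taken from adduct peaks that were selected by computer and manually inspected. Over 3 months, mixtures of ~100 molecules were run by HPLC–quadrupole time-of-flight mass spectrometry in positive and negative ionization mode. The Zorbax Extend-C18 column (2.1 × 50 mm, 1.8 μm) ran at 100 μL/min in water and acetonitrile, each containing 0.1% formic acid, with 40 μL dead volume and 900 μL dwell volume.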
As for `O=C(NCc1cccs1)c1ccc2c(c1)N(C(=O)c1ccc(F)cc1)CC2`, the RP-LC retention time came to 880 s. Molecule `COc1cccc(C(=O)Nc2nc(-c3ccc(OC)c([N+](=O)[O-])c3)c(C)s2)c1` registered an RP-LC retention time of 1070 s.

Regarding `CCCCn1cnc2c(-c3ccccc3)cn(CC(=O)NC(C)C)c2c1=O`, the RP-LC retention time was 905 s. `COc1ccc(CNC(=O)C2CC(=O)N(c3ccc4c(c3)CCN4C(C)=O)C2)cc1` (centres undefined) showed an RP-LC retention time of 664 s.

`NC(=O)C1CCN(Cc2cc(-c3ccc(F)cc3)n[nH]2)CC1` came in with an RP-LC retention time of 571 s. Under `Cc1ccc(S(=O)(=O)N2CCC3(CC2)CCC(O)(CN2CCCC2)CC3)c(C)c1` stands 602 s. Under `CC(C)Sc1ccc(CC(=O)NCC2CCN(C(=O)Nc3ccc(F)cc3)CC2)cc1` stands 860 s; under `CCc1noc(-c2cccnc2N2CCCN(Cc3cccc(F)c3)CC2)n1`, 660 s. `O=C(c1cc(-c2cccs2)[nH]n1)N1CCN(c2ccccn2)CC1` showed an RP-LC retention time of 596 s. `Cc1nnc2sc(SCC(=O)Nc3cccc(C(F)(F)F)c3)nn2c1=O` showed an RP-LC retention time of 759 s. Take `CCC(C)NC(=O)Cn1c(=O)c2cnc(-c3ccc(Cl)cc3)nc2n(CC)c1=O` (centres undefined): the RP-LC retention time is 740 s. `O=C(NCc1csc(C2CCN(S(=O)(=O)c3ccccc3F)CC2)n1)C1CCC1` yielded an RP-LC retention time of 811 s. The molecule `O=C(NCCS(=O)(=O)N1CCN(c2cccc(Cl)c2)CC1)c1cc2ccccc2o1` came in with an RP-LC retention time of 941 s. Under `COc1ccc(C(=O)N2CCc3cn(C)c4cccc(c34)C2)cc1` stands 920 s; under `CN(C)C(=O)C1CCN(c2nc3ccc(-c4ccc(F)cc4)nc3s2)CC1`, 912 s. Under `CCn1nccc1-c1cccc(-c2noc(-c3ccc(OC)cc3C)n2)c1` stands 1300 s; under `CCc1ccc(CNC(=O)c2c(C)sc3ccn(CC)c(=O)c23)cc1`, 959 s; under `Cc1cccc(CNS(=O)(=O)c2c(C)sc(C)c2-c2n[nH]c(C)c2C)c1`, 1070 s. Under `Cc1cccc(NC(=O)N2CCCC2c2cc(C)on2)c1` (centres undefined) stands 748 s.

`COc1cc([C@@H]2c3cc4c(cc3[C@H](O)[C@@H](CO)[C@@H]2C(=O)NCc2ccc(OC(C)C)cc2)OCO4)cc(OC)c1OC` registered an RP-LC retention time of 770 s.

The molecule `O=C(CSc1nc2ccsc2c(=O)n1-c1ccccc1)Nc1ncn[nH]1` returned an RP-LC retention time of 655 s. Under `CCN1C(=O)c2cc(C(=O)NCc3ccccc3F)nn2CC1(C)C(=O)NC1CCCC1` (centres undefined) stands 659 s. On to `Cn1c(=O)oc2cc(-c3noc(CNC(=O)Cc4ccc(Cl)cc4)n3)ccc21`, for which the RP-LC retention time came to 807 s.

Regarding `COc1ccc(-c2noc(C3CCCN(S(=O)(=O)c4ccc(C)cc4)C3)n2)cc1OC` (centres undefined), the RP-LC retention time came out at 993 s. Take `O=C(CN1C(=O)CCc2cc(Br)ccc21)N1CCN(c2ccccc2F)CC1`: the RP-LC retention time turned out to be 951 s.

In the case of `CSc1ccccc1NS(=O)(=O)c1cc2c(s1)CCN(C(=O)C1CC1)C2`, the RP-LC retention time was 851 s.

Turning to `Cc1ccccc1CNC(=O)C1CCN(S(=O)(=O)c2cc(C(=O)N3CCCC3)n(C)c2)CC1`, the RP-LC retention time stood at 738 s. `CCN(CC)CCSC(=O)C(c1ccccc1)c1ccccc1`: the RP-LC retention time was determined as 765 s. Under `Cc1noc(C2CN(CCCc3ccccc3)CC23CCCC3)n1` (centres undefined) stands 1020 s. For `Cc1cccc(Sc2nccnc2N2CCCC(C(=O)NCc3ccc(C)c(C)c3)C2)c1` (centres undefined), the RP-LC retention time turned out to be 1210 s. The molecule `CCNC(=O)C1CCCN(c2nc3ncn(CC(=O)Nc4cc(F)ccc4C)c(=O)c3s2)C1` (centres undefined) showed an RP-LC retention time of 689 s. Consider `COCCNC(=O)c1ccccc1Sc1nccnc1Oc1ccccc1`, for which the RP-LC retention time was found to be 852 s.

For `CC(C)n1c(=O)oc2cc(-c3noc(-c4cccc(C#N)c4)n3)ccc21`, the RP-LC retention time came out at 1090 s.

In turn, `COCc1noc([C@@H]2CC(F)(F)CN2C(=O)c2cc(C)oc2C)n1` had an RP-LC retention time of 835 s.

Regarding `COCCNC(=O)C(=O)NCCc1cccc(OC)c1`, the RP-LC retention time came to 650 s.

In turn, `Cc1ccc(-c2noc(C(=O)N3CCCC3)n2)cc1S(=O)(=O)N1CCN(c2ncccn2)CC1` yielded an RP-LC retention time of 959 s. In turn, `Cc1ccc(S(=O)(=O)N2C[C@@H](F)C[C@H]2C(=O)N2CCCCC2)cc1C` registered an RP-LC retention time of 823 s. `CC(=O)N1c2ccc(S(=O)(=O)N3CCCCCC3)cc2CC1C(=O)NCCc1ccc(C)cc1` (centres undefined) registered an RP-LC retention time of 957 s. As to `O=C(NCc1csc(C2CCN(C(=O)Cc3ccc(Cl)cc3)CC2)n1)C1CC1`, the RP-LC retention time was determined as 747 s. Under `COCCNC(=O)N1CCCCC1c1nncn1Cc1ccccc1` (centres undefined) stands 539 s. In turn, `CC(C)c1ccc(NC(=O)Cn2nc3c4ccc(Cl)cc4ncn3c2=O)cc1` came in with an RP-LC retention time of 671 s. Take `COc1ccccc1OCCNC(=O)C1CC(=O)N(c2n[nH]c3cccc(F)c23)C1` (centres undefined): the RP-LC retention time amounted to 688 s. Turning to `Cn1nc(-c2nnc(-c3ccc(F)cc3)o2)c2c1CCN(S(=O)(=O)c1ccccc1Cl)C2`, the RP-LC retention time came to 990 s. Under `Cc1ccc(N2C(=O)N3CCc4c([nH]c5ccccc45)C3(C)C2=O)cc1` (centres undefined) stands 1020 s; under `CC(C)(C)c1ccc(C(=O)NCc2ccco2)cc1`, 873 s.

As to `CC(C)NC(=O)c1cccc(Nc2c(-c3ccccc3)nc3cnccn23)c1`, the RP-LC retention time was 719 s.

Consider `Cc1ccc(C)c(NC(=O)Cn2ncc3c(c2=O)N(C2CC2)C(=O)CS3)c1`, for which the RP-LC retention time worked out at 732 s.

Molecule `O=S(=O)(c1ccc(Cl)c(-c2nnc(-c3ccccc3)o2)c1)N1CCN(c2ccccn2)CC1` returned an RP-LC retention time of 802 s.

As to `Cc1ccc(-c2noc(CSc3nc4cc5c(cc4c(=O)n3Cc3ccccc3)OCO5)n2)cc1`, the RP-LC retention time was 1300 s.

For the molecule `O=C1NC(=O)/C(=C/c2ccc(-c3ccc(F)cc3O)o2)S1`, the RP-LC retention time stood at 923 s. For `COCCCNC(=O)NCc1ccc2c(c1)N(C(=O)c1ccccc1)CC2`, the RP-LC retention time was 742 s. `CCOc1ccc(C(=O)N2C[C@@H]3C[C@H]2C[C@@H]3NS(=O)(=O)c2ccccc2)cc1`: the RP-LC retention time is 764 s. Under `CCc1ccccc1NC(=O)NCC1CCOCC1` stands 705 s; under `CNS(=O)(=O)c1cccnc1Nc1cc(C)cc(C)c1`, 990 s; under `O=C(Nc1ccsn1)c1ccc(Cl)cc1Cl`, 874 s. Regarding `CC(C)(C)C(O)CCNC(=O)Nc1ccc2c(c1)OCO2` (centres undefined), the RP-LC retention time was 690 s. With `O=C(CCc1nc(-c2ccc(N3CCCC3)cc2)no1)N1CCN(c2ccc(Cl)cc2)CC1`, the RP-LC retention time turned out to be 1240 s.

Regarding `CCc1nn2c(CNC(=O)c3cc(Cl)ccc3OC)c(C)nc2s1`, the RP-LC retention time amounted to 659 s. In turn, `Cc1csc(NC(=O)c2ccc(Br)cc2)n1` registered an RP-LC retention time of 902 s.

`O=C1[C@H]2CCCC[C@H]2C(=O)N1CCCCN1CCN(c2nsc3ccccc23)CC1`: the RP-LC retention time was 775 s. `CCN1C(=O)C(C)(C(=O)Nc2cc(OC)cc(OC)c2)Oc2cccnc21` (centres undefined) registered an RP-LC retention time of 868 s. On to `CC(=O)c1ccc(NC(=O)c2[nH]c3cc(C)sc3c2CN(C)C)cc1`, for which the RP-LC retention time stood at 638 s. Turning to `CC(C)Cn1c(=O)c2cc(C(=O)N3CCSCC3)nn2c2ccccc21`, the RP-LC retention time amounted to 955 s.

For the molecule `CCOC(=O)c1c(C)c(CCC(=O)NC2CCCCC2)n(C)c1C`, the RP-LC retention time was determined as 892 s.

In turn, `COc1ccc(-c2noc(C3CCCN3C(=O)c3ccc(C)s3)n2)cc1` (centres undefined) displayed an RP-LC retention time of 996 s. Under `O=C(CSc1nnc2c3sc(N4CCCC4)nc3ncn12)N1CCN(c2ccc(F)cc2)CC1` stands 834 s. Under `CCC(=O)Oc1ccc(N(C)C2=NS(=O)(=O)c3ccccc32)cc1` stands 859 s; under `COc1ccc(-c2cn3c(CC(=O)Nc4ccc(F)cc4Cl)csc3n2)cc1OC`, 766 s.

In the case of `O=C(Cn1c(=O)c2cc(C3CC3)nn2c2ncccc21)Nc1ccccc1`, the RP-LC retention time is 752 s. Turning to `CCc1nc(-c2csc(S(=O)(=O)N3CCC(C(=O)Nc4ccc(C)c(Cl)c4)CC3)c2)no1`, the RP-LC retention time worked out at 994 s. Regarding `CCN1CCN(CCCNc2nc(-c3ccc(Cl)cc3)nc3ccccc23)CC1`, the RP-LC retention time is 577 s. `Cc1ccc2nc(N3CCN(c4ccccc4F)CC3)c(-c3noc(C)n3)cc2c1` gave an RP-LC retention time of 730 s.

`CCOC(=O)c1[nH]c(C)c(CCC(=O)N2CCC(C(=O)NC(C)C)CC2)c1C`: the RP-LC retention time was 683 s.

`COc1ccc(-c2cn3ccn(-c4ccc(C)cc4C)c(=O)c3n2)cc1OC` had an RP-LC retention time of 797 s. For the molecule `Cc1cccc(C)c1OCC(O)Cn1c(C2CC(=O)N(Cc3ccccc3)C2)nc2ccccc21` (centres undefined), the RP-LC retention time is 834 s.

For the molecule `Cc1cccc(NC(=O)N2CCc3nc(-c4ccc(Cl)cc4)ncc3C2)c1`, the RP-LC retention time was 1080 s.

For `CC1=C(c2ccc(C)cc2)S(=O)(=O)N=C1N1CCCN(C(=O)Cc2cccnc2)CC1`, the RP-LC retention time worked out at 624 s.

As for `CC(=O)N1c2ccc(S(=O)(=O)N3CCCCC3)cc2CC1C(=O)NCCN1CCCCC1` (centres undefined), the RP-LC retention time was 626 s. In the case of `CCC1Oc2ccc(S(=O)(=O)N3CCC(C(=O)NC4CCCCC4)CC3)cc2NC1=O` (centres undefined), the RP-LC retention time was 838 s.

Source of the values: the METLIN SMRT retention time set (Domingo-Almenara et al. 2019).
